Experimental data taken from ChEMBL document CHEMBL1201862, “PubChem BioAssay data set” (2004).
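Assay format: 96-well plates, 48-hour exposure. GI50 = concentration required for 50% inhibition of growth.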 Active and inactive are the calls of the source. Rule as the data show it: active = GI50 up to about 1.1 µM and inactive = higher.

Assays:
Test in all cases: NCI tumour cell line growth inhibition, 48 h
SR = system: SR
SK-OV-3 = system: SK-OV-3
KM12 = system: KM12
SW-620 = system: SW-620
MDA-N = system: MDA-N
SK-MEL-2 = system: SK-MEL-2
HCC 2998 = system: HCC 2998
MCF7 = system: MCF7
TK-10 = system: TK-10
COLO 205 = system: COLO 205
CCRF-CEM = system: CCRF-CEM
HOP-62 = system: HOP-62
HCT-116 = system: HCT-116
SNB-19 = system: SNB-19
SF-295 = system: SF-295
OVCAR-5 = system: OVCAR-5
SK-MEL-5 = system: SK-MEL-5
SNB-75 = system: SNB-75
NCI-H23 = system: NCI-H23
HT-29 = system: HT-29
HOP-92 = system: HOP-92
NCI/ADR-RES = system: NCI/ADR-RES
RPMI-8226 = system: RPMI-8226
NCI-H460 = system: NCI-H460
SK-MEL-28 = system: SK-MEL-28
ACHN = system: ACHN
OVCAR-3 = system: OVCAR-3
UACC-62 = system: UACC-62
MOLT-4 = system: MOLT-4
HL-60 = system: HL-60
MDA-MB-231 = system: MDA-MB-231
SF-268 = system: SF-268
Malme-3M = system: Malme-3M
NCI-H522 = system: NCI-H522
UACC-257 = system: UACC-257
SF-539 = system: SF-539
BT-549 = system: BT-549
CAKI-1 = system: CAKI-1
MDA-MB-435 = system: MDA-MB-435
OVCAR-8 = system: OVCAR-8
U-251 = system: U-251
SN12C = system: SN12C
NCI-H226 = system: NCI-H226
LOX IMVI = system: LOX IMVI
UO-31 = system: UO-31
786-0 = system: 786-0
OVCAR-4 = system: OVCAR-4
PC-3 = system: PC-3
IGROV-1 = system: IGROV-1
EKVX = system: EKVX
M14 = system: M14
Hs-578T = system: Hs-578T
A549 = system: A549
DU-145 = system: DU-145
HCT-15 = system: HCT-15
T47D = system: T47D

Structure (SMILES): c1ccc(-c2ccc(-c3cc4ccccc4[nH]3)cc2)cc1
- GI50 (SR): > 100 µM (inactive)
- GI50 (SK-OV-3): > 100 µM (inactive)
- GI50 (KM12): > 100 µM (inactive)
- GI50 (SW-620): > 100 µM (inactive)
- GI50 (MDA-N): > 100 µM (inactive)
- GI50 (SK-MEL-2): > 100 µM (inactive)
- GI50 (HCC 2998): > 100 µM (inactive)
- GI50 (MCF7): > 100 µM (inactive)
- GI50 (TK-10): > 100 µM (inactive)
- GI50 (COLO 205): > 100 µM (inactive)
- GI50 (CCRF-CEM): 87.7 µM (inactive)
- GI50 (HOP-62): > 100 µM (inactive)
- GI50 (HCT-116): > 100 µM (inactive)
- GI50 (SNB-19): > 100 µM (inactive)
- GI50 (SF-295): > 100 µM (inactive)
- GI50 (OVCAR-5): > 100 µM (inactive)
- GI50 (SK-MEL-5): > 100 µM (inactive)
- GI50 (SNB-75): > 100 µM (inactive)
- GI50 (NCI-H23): > 100 µM (inactive)
- GI50 (HT-29): > 100 µM (inactive)
- GI50 (HOP-92): > 100 µM (inactive)
- GI50 (NCI/ADR-RES): > 100 µM (inactive)
- GI50 (RPMI-8226): > 100 µM (inactive)
- GI50 (NCI-H460): > 100 µM (inactive)
- GI50 (SK-MEL-28): > 100 µM (inactive)
- GI50 (ACHN): > 100 µM (inactive)
- GI50 (OVCAR-3): > 100 µM (inactive)
- GI50 (UACC-62): > 100 µM (inactive)
- GI50 (MOLT-4): > 100 µM (inactive)
- GI50 (HL-60): 27.8 µM (inactive)
- GI50 (MDA-MB-231): > 100 µM (inactive)
- GI50 (SF-268): > 100 µM (inactive)
- GI50 (Malme-3M): > 100 µM (inactive)
- GI50 (NCI-H522): 60.3 µM (inactive)
- GI50 (UACC-257): > 100 µM (inactive)
- GI50 (SF-539): > 100 µM (inactive)
- GI50 (BT-549): > 100 µM (inactive)
- GI50 (CAKI-1): 61.7 µM (inactive)
- GI50 (MDA-MB-435): > 100 µM (inactive)
- GI50 (OVCAR-8): > 100 µM (inactive)
- GI50 (U-251): > 100 µM (inactive)
- GI50 (SN12C): > 100 µM (inactive)
- GI50 (NCI-H226): > 100 µM (inactive)
- GI50 (LOX IMVI): > 100 µM (inactive)
- GI50 (UO-31): > 100 µM (inactive)
- GI50 (786-0): > 100 µM (inactive)
- GI50 (OVCAR-4): > 100 µM (inactive)
- GI50 (PC-3): > 100 µM (inactive)
- GI50 (IGROV-1): > 100 µM (inactive)
- GI50 (EKVX): > 100 µM (inactive)
- GI50 (M14): > 100 µM (inactive)
- GI50 (Hs-578T): > 100 µM (inactive)
- GI50 (A549): > 100 µM (inactive)
- GI50 (DU-145): > 100 µM (inactive)
- GI50 (HCT-15): > 100 µM
- GI50 (T47D): > 100 µM (inactive)
